Results as given in PMC12005787, “Synthetic Lethality of SHP2 and XIAP Suppresses Proliferation and Metastasis in KRAS‐mutant Nonsmall Cell Lung Cancer” (Advanced Science, 2025).
Read-outs that look alike come from different tables or passages of the source.

Experiments:
SHP2 = target: T1, SHP2 (Homo sapiens, UniProt Q06124); assay: Cellular thermal shift assay (CETSA); type: binding; conditions: NCI‐H2122 cell lysate
T1 construct: endogenous in cells; host or cells: NCI-H2122
T1 sequence (Q06124 1-593): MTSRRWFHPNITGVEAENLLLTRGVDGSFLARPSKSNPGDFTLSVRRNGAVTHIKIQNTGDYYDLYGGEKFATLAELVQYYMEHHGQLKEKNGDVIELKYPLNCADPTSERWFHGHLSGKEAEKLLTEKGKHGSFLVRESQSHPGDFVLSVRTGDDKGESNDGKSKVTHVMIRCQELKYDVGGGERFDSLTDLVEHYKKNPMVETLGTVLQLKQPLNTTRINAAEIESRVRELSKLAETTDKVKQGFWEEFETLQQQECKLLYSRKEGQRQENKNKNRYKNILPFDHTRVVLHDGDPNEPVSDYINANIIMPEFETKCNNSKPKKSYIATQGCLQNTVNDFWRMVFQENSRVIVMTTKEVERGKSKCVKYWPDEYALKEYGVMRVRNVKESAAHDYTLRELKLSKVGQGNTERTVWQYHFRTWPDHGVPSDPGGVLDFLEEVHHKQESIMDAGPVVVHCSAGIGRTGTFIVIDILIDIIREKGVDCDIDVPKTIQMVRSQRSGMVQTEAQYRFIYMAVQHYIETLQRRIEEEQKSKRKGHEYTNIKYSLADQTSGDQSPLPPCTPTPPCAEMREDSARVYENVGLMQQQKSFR
Experimental: NCI‐H2122 cells were harvested and resuspended with pre‐cooled PBS containing 1% cocktail, which was then frozen in liquid nitrogen for 5 min and thawed in a water bath at 37 °C for 5 min for three repetitions. The supernatant was collected via centrifugation at 4 °C (15 000 × g, 20 min), divided into two equal portions; one was added with test drugs or various concentrations of embelin, and the other was added with DMSO as control and subsequently incubated at 25 °C for 30 min. All samples were heated at temperatures ranging from 52–70 °C for 3 min, and subsequently in an ice bath for 3 min and collected by centrifugation at 4 °C (15 000 × g, 20 min), and added with protein sampling buffer at 100 °C for 5 min, followed by analysis of protein stability using western blotting.

SW620 cells = assay: Cell viability assay (CCK-8); type: cell-based; conditions: Homo sapiens, SW-620
Experimental: (§1) supplies are listed in Supplementary Table S5. The relevant reagents for protein extraction from Escherichia coli are listed in Supplementary Table S6. Inhibitory effects of embelin on KRAS-mutant and wild-type cells are listed in Supplementary Table S7.
(§2) For the adherent cell viability assay, cells in the logarithmic growth phase were seeded in 96-well culture plates at a density of 5×103 well-1 and incubated overnight. Diluted compounds or DMSO were added, or specific treatments were incubated at 37 °C and 5% CO2 for 24 h or 48 h. Cell viability was determined using CCK-8 or CellLightTM Cell Viability Assay Kit, according to the manufacturer's protocol. The luminescence signals of the treated samples were normalized to those of the DMSO group. […]

HCC827 cells = assay: Cell viability assay (CCK-8); type: cell-based; conditions: Homo sapiens; HCC827, RAS-wild type, 24 h
Experimental: as §1, §2

[1] = system: KRAS‐mutant NSCLC cells in 3D culture; assay: Cell proliferation in 3D cell culture (ATP chemiluminescence); type: cell-based
Experimental: supplies are listed in Supplementary Table S5. […]
For the adherent cell viability assay, cells in the logarithmic growth phase were seeded in 96-well culture plates at a density of 5×103 well-1 and incubated overnight. Diluted compounds or DMSO were added, or specific treatments were incubated at 37 °C and 5% CO2 for 24 h or 48 h. Cell viability was determined using CCK-8 or CellLightTM Cell Viability Assay Kit, according to the manufacturer's protocol. The luminescence signals of the treated samples were normalized to those of the DMSO group.
For spherical cell viability assays, cells in the logarithmic growth phase were inoculated ata density of 4×10^3 well-1 into 96-well spherical cell microplates and incubated at 37 °C, 5% CO2 for 24 h or 48 h. Cell viability was measured using the CellTiter-Glo® Luminescent Cell Viability 3D Cell Viability Assay Kit, according to the manufacturer’s protocol. The remaining steps were the same as those described above. […]
Figure S7. Targeting SHP2 and XIAP produces a synthetic lethal effect. (A) Effects of NSC-87877 on cell viability of A549 and NCI-H2122 cells after 24 and 48 h were determined using the CCK-8. Bars, ± SEM. […]
tailed Student’s t-test).(K) Effects of SHP099 and GDC-0152 separately and in combination with […] on the cell viability of human KRAS-WT and -mutant cells were assessed using a colony formation assay. […]

effect on SHP2 protein stability (CETSA) (SHP2)	IC50 (SW620 cells; SW620, 48 h, read-out: IC50 at 48 h)	IC50 (SW620 cells; SW620, KRAS G12V, 24 h, read-out: IC50 at 24 h)	IC50 (HCC827 cells)	SMILES	effect on cell proliferation in 3D cell culture [1]
increased the stability of SHP2 protein	5.06 ± 0.45 µM	18.6 ± 0.4 µM	4.95 ± 0.28 µM	CCCCCCCCCCCC1=C(O)C(=O)C=C(O)C1=O [Embelin]	
				CC1(N)CCN(c2cnc(-c3cccc(Cl)c3Cl)c(N)n2)CC1 [SHP099]	partially inhibited cell proliferation
